As a reminder, the IC50 is the concentration at which inhibition is half-maximal.

This passage reports IC50 results from patent publication US7432260B2, “Pyrimidine compounds” (Cyclacel Limted, priority 2002, dated 2008).

One assay deals with HT29. Kind of assay: 72-h MTT cytotoxicity assay HT29. The assay is classed as cell-based. The settings on record: Homo sapiens, HT-29, 72 h, Table 4. Here is the method:
(§1) MTT cytotoxicity assay. […] Standard 72-h MTT (thiazolyl blue; 3-[4,5-dimethylthiazol-2-yl]-2,5-diphenyltetrazolium bromide) assays were performed (Haselsberger, K.; Peterson, D. C.; Thomas, D. G.; Darling, J. L. Anti Cancer Drugs 1996, 7, 331-8; Loveland, B. E.; Johns, T. G.; Mackay, I. R.; Vaillant, F.; Wang, Z. X.; Hertzog, P. J. Biochemistry International 1992, 27, 501-10). In short: cells were seeded into 96-well plates according to doubling time and incubated overnight at 37° C. Test compounds were made up in DMSO and a 1/3 dilution series prepared in 100 μL cell media, added to cells (in triplicates) and incubated for 72 ho at 37° C. MTT was made up as a stock of 5 mg/mL in cell media and filter-sterilised. Media was removed from cells followed by a wash with 200 μL PBS.
(§2) MTT solution was then added at 20 μL per well and incubated in the dark at 37° C. for 4 h. MTT solution was removed and cells again washed with 200 μL PBS. MTT dye was solubilised with 200 μL per well of DMSO with agitation.

The next assay has as its target CDK1/cyclin B (Homo sapiens, UniProt P06493). The assay can be described thus: Kinase assay CDK1/cyclin B. The assay is classed as biochemical. The note with it: Table 2; read-out: Kinase Inhibition IC50 CDK1 cyclin B. As for the experimental part: (§3) Kinase assays. […] This was achieved by measurement of incorporation of radioactive phosphate from ATP into appropriate polypeptide substrates. Recombinant protein kinases and kinase complexes were produced or obtained commercially. Assays were performed using 96-well plates and appropriate assay buffers (typically 25 mM β-glycerophosphate, 20 mM MOPS, 5 mM EGTA, 1 mM DTT, 1 mM […], pH 7.4), into which were added 2-4 μg of active enzyme with appropriate substrates. The reactions were initiated by addition of Mg/ATP mix (15 mM MgCl2+100 μM ATP with 30-50 kBq per well of [γ-^32P]-ATP) and mixtures incubated as required at 30° C. Reactions were stopped on ice, followed by filtration through p81 filterplates or GF/C filterplates (Whatman Polyfiltronics, Kent, UK). After washing 3 times with 75 mM aq orthophosphoric acid, plates were dried, scintillant added and incorporated radioactivity measured in a scintillation counter (TopCount, Packard Instruments, Pangbourne, Berks, UK). Compounds for kinase assay were made-up as 10 mM stocks in DMSO and diluted into 10% DMSO inrassay buffer.

A further assay concerns the target CDK4/cyclin D1 (Homo sapiens, UniProt P11802). Kind of assay: Kinase assay CDK4/cyclin D1. The assay is classed as biochemical. The note with it: Table 2; read-out: Kinase Inhibition IC50 CDK4 cyclin D1. As for the experimental part: as §3
The next assay concerns the target CDK2/cyclin A (Homo sapiens, UniProt P24941). The assay can be described thus: Kinase assay CDK2/cyclin A. The assay is classed as biochemical. The note with it: Table 2; read-out: Kinase Inhibition IC50 CDK2 cyclin A. As for the experimental part:
as §3

The target in a further assay is CDK7/cyclin H (Homo sapiens, UniProt P50613). Kind of assay: CDK7 assay. The assay is classed as biochemical. The note with it: Table 2; read-out: Kinase Inhibition IC50 CDK7 cyclin H. Here is the method: as §3
(§4) CDK 7 and 9 assays. CTD peptide substrate (biotinyl-Ahx-(Tyr-Ser-Pro-Thr-Ser-Pro-Ser)4-NH2; 1-2 mg/mL) and recombinant human CDK7/cyclin H, CDK9/cyclin T1, or CDK9/cyclin K (0.5-2 μg) were incubated for 45 min at 30° C. in the presence of varying amounts of test compound in 20 mM MOPS pH 7.2, 25 mM β-glycerophosphate, 5 mM EGTA, 1 mM DTT, 1 mM sodium vanadate, 15 mM MgCl2, and 100 μM ATP (containing a trace amount of ^32PγATP) in a total volume of 25 μL in a 96-well microtiter plate. The reaction was stopped by placing the plate on ice for 2 min. Avidin (50 μg) was added to each well, and the plate was incubated at room temp for 30 min. The samples were transferred to a 96-well P81 filter plate, and washed (4×200 μL per well) with 75 mM phosphoric acid. Microscint 40 scintillation liquid (50 μL) was added to each well, and the amount of ^32P incorporation for each sample was measured using a Packard Topcount microplate scintillation counter.

In a further assay the test system is Saos-2. Kind of assay: 72-h MTT cytotoxicity assay Saos-2. The assay is classed as cell-based. The settings on record: Homo sapiens, SAOS-2, 72 h, Table 4. As for the experimental part:
as §1, §2
A general note: Tetrazolium assays rely on reduction of a dye to a coloured formazan, in cell work by metabolically active cells.

Another assay deals with A549. Kind of assay: 72-h MTT cytotoxicity assay A549. The assay is classed as cell-based. The note with it: Homo sapiens, A549, 72 h, Table 4. Here is the method: as §1, §2
Another assay has as its target CDK2/cyclin E (Homo sapiens, UniProt P24941). The assay can be described thus: Kinase assay CDK2/cyclin E. The assay is classed as biochemical. The note with it: Table 2; read-out: Kinase Inhibition IC50 CDK2 cyclin E. As for the experimental part:
as §3

The next assay deals with CDK9/cyclin T1 (Homo sapiens, UniProt P50750). Kind of assay: CDK9 assay. The settings on record: Table 2; read-out: Kinase Inhibition IC50 CDK9 cyclin T1. The assay is classed as biochemical. Here is the method:
as §3, §4

In another assay the target is GSK-3β (Homo sapiens, UniProt P49841). The assay can be described thus: Kinase assay GSK-3β. The assay is classed as biochemical. The settings on record: Table 2; read-out: Kinase Inhibition IC50 GSK-3β. As for the experimental part:
as §3

CDK1/cyclin B, sequence (P06493 whole entry): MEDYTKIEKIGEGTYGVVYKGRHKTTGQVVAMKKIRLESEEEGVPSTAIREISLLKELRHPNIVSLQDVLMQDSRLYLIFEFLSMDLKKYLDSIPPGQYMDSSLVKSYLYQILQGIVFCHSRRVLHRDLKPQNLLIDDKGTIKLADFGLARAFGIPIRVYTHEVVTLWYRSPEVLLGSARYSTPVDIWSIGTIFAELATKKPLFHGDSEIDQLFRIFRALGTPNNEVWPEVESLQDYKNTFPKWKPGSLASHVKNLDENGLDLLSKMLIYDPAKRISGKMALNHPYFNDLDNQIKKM
CDK1/cyclin B, sequence (P14635 whole entry partner): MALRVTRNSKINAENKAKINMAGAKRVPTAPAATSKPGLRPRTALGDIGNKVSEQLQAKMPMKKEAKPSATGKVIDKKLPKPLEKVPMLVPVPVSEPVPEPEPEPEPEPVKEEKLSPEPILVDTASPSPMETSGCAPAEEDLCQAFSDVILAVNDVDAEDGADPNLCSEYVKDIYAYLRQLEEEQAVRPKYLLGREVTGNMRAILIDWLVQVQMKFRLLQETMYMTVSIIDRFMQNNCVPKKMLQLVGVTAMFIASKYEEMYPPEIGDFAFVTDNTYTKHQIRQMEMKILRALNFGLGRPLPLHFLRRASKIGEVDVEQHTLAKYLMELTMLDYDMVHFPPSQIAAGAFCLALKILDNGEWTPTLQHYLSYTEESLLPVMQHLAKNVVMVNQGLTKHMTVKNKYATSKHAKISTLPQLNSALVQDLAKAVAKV
CDK7/cyclin H, sequence (P50613 whole entry): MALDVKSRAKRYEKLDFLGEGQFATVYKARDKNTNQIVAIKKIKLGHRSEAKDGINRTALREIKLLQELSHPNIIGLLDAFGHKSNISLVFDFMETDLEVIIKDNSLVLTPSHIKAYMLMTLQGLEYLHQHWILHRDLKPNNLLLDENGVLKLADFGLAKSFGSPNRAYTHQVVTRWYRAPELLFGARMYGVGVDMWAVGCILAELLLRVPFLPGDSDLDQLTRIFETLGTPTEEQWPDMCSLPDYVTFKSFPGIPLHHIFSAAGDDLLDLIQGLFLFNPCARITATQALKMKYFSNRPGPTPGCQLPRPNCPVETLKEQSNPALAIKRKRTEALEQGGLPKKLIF
CDK9/cyclin T1, sequence (P50750 whole entry): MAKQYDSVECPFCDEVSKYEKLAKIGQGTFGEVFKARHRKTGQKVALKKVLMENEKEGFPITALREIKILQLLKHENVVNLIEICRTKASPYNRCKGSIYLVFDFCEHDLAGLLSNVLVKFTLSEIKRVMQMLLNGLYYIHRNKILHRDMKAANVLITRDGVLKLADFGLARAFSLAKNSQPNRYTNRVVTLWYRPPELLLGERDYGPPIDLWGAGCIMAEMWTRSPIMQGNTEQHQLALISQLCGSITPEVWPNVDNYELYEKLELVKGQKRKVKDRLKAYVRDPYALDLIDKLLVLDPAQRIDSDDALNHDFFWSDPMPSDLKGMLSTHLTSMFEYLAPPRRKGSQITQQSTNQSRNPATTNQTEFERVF
CDK9/cyclin T1, sequence (O60563 whole entry partner): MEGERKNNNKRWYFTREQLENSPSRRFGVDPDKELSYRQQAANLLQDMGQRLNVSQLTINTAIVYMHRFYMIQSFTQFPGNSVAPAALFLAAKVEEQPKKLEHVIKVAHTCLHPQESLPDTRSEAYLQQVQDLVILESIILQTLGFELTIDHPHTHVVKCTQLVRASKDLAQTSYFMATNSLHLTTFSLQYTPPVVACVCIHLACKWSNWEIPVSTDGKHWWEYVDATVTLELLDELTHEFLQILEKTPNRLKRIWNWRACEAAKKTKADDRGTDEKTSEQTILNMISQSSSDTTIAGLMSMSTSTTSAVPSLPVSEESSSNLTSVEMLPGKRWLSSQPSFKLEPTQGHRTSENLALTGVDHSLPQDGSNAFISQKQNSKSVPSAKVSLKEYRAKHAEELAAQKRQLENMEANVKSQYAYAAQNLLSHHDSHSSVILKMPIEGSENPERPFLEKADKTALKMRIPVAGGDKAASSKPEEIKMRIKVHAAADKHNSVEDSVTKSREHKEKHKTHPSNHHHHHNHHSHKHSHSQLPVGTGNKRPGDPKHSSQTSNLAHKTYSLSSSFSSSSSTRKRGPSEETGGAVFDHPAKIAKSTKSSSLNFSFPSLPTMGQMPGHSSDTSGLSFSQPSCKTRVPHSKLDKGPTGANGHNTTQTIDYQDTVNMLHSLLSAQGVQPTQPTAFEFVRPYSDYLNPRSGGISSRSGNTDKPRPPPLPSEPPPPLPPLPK
CDK4/cyclin D1, sequence (P11802 whole entry): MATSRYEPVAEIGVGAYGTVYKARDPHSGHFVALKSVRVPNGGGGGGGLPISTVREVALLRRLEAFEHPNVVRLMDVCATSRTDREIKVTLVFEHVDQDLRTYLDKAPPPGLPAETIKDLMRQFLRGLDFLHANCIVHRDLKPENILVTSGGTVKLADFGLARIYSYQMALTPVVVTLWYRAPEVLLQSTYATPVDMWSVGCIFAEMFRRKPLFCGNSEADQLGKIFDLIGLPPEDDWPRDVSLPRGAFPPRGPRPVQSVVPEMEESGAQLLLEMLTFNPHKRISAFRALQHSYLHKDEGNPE
CDK4/cyclin D1, sequence (P24385 whole entry partner): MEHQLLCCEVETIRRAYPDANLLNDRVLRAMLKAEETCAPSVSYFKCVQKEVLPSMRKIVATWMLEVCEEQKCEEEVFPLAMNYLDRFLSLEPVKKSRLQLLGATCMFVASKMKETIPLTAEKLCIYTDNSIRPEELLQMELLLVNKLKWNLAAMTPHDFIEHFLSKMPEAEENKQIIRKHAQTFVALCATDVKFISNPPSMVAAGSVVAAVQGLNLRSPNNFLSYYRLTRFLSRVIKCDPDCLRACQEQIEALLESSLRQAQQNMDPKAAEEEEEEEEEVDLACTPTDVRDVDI
GSK-3β, sequence (P49841 whole entry): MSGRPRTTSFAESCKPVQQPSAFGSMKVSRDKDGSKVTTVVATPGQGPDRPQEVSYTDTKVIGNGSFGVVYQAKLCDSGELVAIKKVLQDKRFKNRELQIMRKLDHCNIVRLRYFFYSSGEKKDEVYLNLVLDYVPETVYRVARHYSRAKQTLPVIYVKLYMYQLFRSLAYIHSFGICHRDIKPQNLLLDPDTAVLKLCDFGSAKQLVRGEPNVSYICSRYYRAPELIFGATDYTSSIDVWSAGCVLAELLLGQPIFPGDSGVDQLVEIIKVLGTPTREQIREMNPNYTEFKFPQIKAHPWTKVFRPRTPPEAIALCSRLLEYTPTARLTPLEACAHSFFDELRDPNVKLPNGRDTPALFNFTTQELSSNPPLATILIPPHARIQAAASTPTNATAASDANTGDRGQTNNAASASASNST

Turning to `CCN(CC)CCNCCC(=O)Nc1nc(C)c(-c2ccnc(Nc3ccc(Cl)cc3)n2)s1` [Compound 36, N-{5-[2-(4-Chloro-phenylamino)-pyrimidin-4-yl]-4-methyl-thiazol-2-yl}-3-(2-diethylamino-ethylamino)-propionamide], the half-inhibitory concentration (IC50) in the assay on HT29 was found to be 9.6 µM; at CDK1/cyclin B, 33 µM; on CDK4/cyclin D1, 8.8 µM; at CDK2/cyclin A it was 13 µM; at CDK7/cyclin H, 4 µM; in the assay on Saos-2, 38 µM. Moreover, the IC50 in the assay with A549 worked out at 26 µM; at CDK2/cyclin E it was 3.4 µM; on CDK9/cyclin T1, 4.8 µM.

`Cc1nc(NC(=O)CCN)sc1-c1ccnc(Nc2cccc([N+](=O)[O-])c2)n1` [Compound 13, 3-Amino-N-{4-methyl-5-[2-(3-nitro-phenylamino)-pyrimidin-4-yl]-thiazol-2-yl}-propionamide]: the IC50 was determined as 2.8 µM in the assay with HT29; 5.6 µM at CDK1/cyclin B; 0.67 µM on CDK4/cyclin D1; 0.57 µM on CDK2/cyclin A; 0.37 µM at CDK7/cyclin H; 1.9 µM in the assay with Saos-2. For the same compound, the IC50 in the assay on A549 stood at 3.1 µM; on CDK2/cyclin E, 0.28 µM; at CDK9/cyclin T1, 0.042 µM.

On to `Cc1nc(N)sc1-c1ccnc(Nc2cccc(S(C)(=O)=O)c2)n1` [Compound 84, [4-(2-Amino-4-methyl-thiazol-5-yl)-pyrimidin-2-yl]-(3-methanesulfonyl-phenyl)-amine], for which the IC50 at CDK1/cyclin B is 0.14 µM; at CDK4/cyclin D1 it was 0.3 µM; on GSK-3β, 0.3 µM; at CDK2/cyclin A, 0.05 µM; on CDK7/cyclin H, 0.43 µM; on CDK2/cyclin E, 0.076 µM.

In the case of `CC(=O)Nc1ccc(Nc2nccc(-c3sc(C)nc3C)n2)cc1` [Compound 45, N-{4-[4-(2,4-Dimethyl-thiazol-5-yl)-pyrimidin-2-ylamino]-phenyl}-acetamide], the IC50 came to 2.2 µM with HT29; 2.5 µM at CDK1/cyclin B; 0.37 µM on CDK4/cyclin D1; 0.84 µM on CDK2/cyclin A; 17 µM on CDK7/cyclin H; 2.8 µM in the assay with Saos-2. The IC50 in the assay with A549 turned out to be 2.6 µM; at CDK2/cyclin E, 0.66 µM; at CDK9/cyclin T1, 0.24 µM.

As to `Cc1nc(NC(=O)CCl)sc1-c1ccnc(Nc2ccc(Cl)cc2)n1` [Compound 34, 2-Chloro-N-{5-[2-(4-chloro-phenylamino)-pyrimidin-4-yl]-4-methyl-thiazol-2-yl}-acetamide], the IC50 came to 3.2 µM in the assay on HT29; 7 µM at CDK4/cyclin D1; 0.73 µM on GSK-3β; 3.3 µM in the assay on Saos-2; 3.9 µM with A549; 1.4 µM on CDK2/cyclin E.

As to `Cc1nc(NC(=O)CCN2CCOCC2)sc1-c1ccnc(Nc2ccc(Cl)cc2)n1` [Compound 35, N-{5-[2-(4-Chloro-phenylamino)-pyrimidin-4-yl]-4-methyl-thiazol-2-yl}-3-morpholin-4-yl-propionamide], the IC50 turned out to be 7.7 µM in the assay with HT29; 15 µM at CDK1/cyclin B; 4.7 µM at CDK4/cyclin D1; 3 µM on CDK2/cyclin A; 26 µM with Saos-2; 15 µM in the assay with A549. Besides, the IC50 was determined as 0.8 µM at CDK2/cyclin E and 1.8 µM on CDK9/cyclin T1.

In the case of `Cc1nc(NC(=O)CCNCCN2CCOCC2)sc1-c1ccnc(Nc2ccc(Cl)cc2)n1` [Compound 37, N-{5-[2-(4-Chloro-phenylamino)-pyrimidin-4-yl]-4-methyl-thiazol-2-yl}-3-(2-morpholin-4-yl-ethylamino)-propionamide], the IC50 in the assay with HT29 was 15 µM; at CDK1/cyclin B, > 100 µM; on CDK4/cyclin D1 it was 18 µM; at CDK2/cyclin A, 16 µM; in the assay on Saos-2, 73 µM; in the assay with A549, 35 µM. For the same compound, the values for the IC50 at CDK2/cyclin E and on CDK9/cyclin T1 were 8 µM and 6.3 µM, respectively.

Take `Cc1nc(C)c(-c2ccnc(Nc3ccc(N4CCN(CCO)CC4)cc3)n2)s1` [Compound 9, 2-(4-{4-[4-(2,4-Dimethyl-thiazol-5-yl)-pyrimidin-2-ylamino]-phenyl}-piperazin-1-yl)-ethanol]: the IC50 was found to be 2 µM in the assay on HT29; 5.2 µM on CDK1/cyclin B; 0.43 µM at CDK4/cyclin D1; 1.2 µM at CDK2/cyclin A; 1.3 µM on CDK7/cyclin H; 2 µM in the assay on Saos-2. For the same compound, the IC50 was 3 µM in the assay with A549, 2.2 µM on CDK2/cyclin E and 0.21 µM at CDK9/cyclin T1.

With `Cc1nc(NC(=O)CCBr)sc1-c1ccnc(Nc2ccc(F)cc2)n1` [Compound 20, 3-Bromo-N-{5-[2-(4-fluoro-phenylamino)-pyrimidin-4-yl]-4-methyl-thiazol-2-yl}-propionamide], the IC50 was 6.3 µM in the assay on HT29; 1.9 µM on CDK1/cyclin B; 0.77 µM on CDK4/cyclin D1; 0.52 µM on CDK2/cyclin A; 5.8 µM in the assay with A549; 0.076 µM at CDK2/cyclin E. Also, at CDK9/cyclin T1, the IC50 came out at 0.037 µM.

In the case of `COc1cccc(Nc2nccc(-c3sc(NC(=O)CCN4CCOCC4)nc3C)n2)c1` [Compound 39, N-{5-[2-(3-Methoxy-phenylamino)-pyrimidin-4-yl]-4-methyl-thiazol-2-yl}-3-morpholin-4-yl-propionamide], the IC50 in the assay on HT29 was found to be 0.72 µM; on CDK1/cyclin B, 11 µM; at CDK4/cyclin D1, 32 µM; on CDK2/cyclin A it was 2.7 µM; with Saos-2 it was 0.95 µM; in the assay with A549 it was 0.8 µM. Besides, the IC50 is 1.2 µM at CDK2/cyclin E and 15 µM on CDK9/cyclin T1.

With `COc1ccc(Nc2nccc(-c3sc(NC(=O)CCN4CCN(C)CC4)nc3C)n2)cc1` [Compound 40, N-{5-[2-(4-Methoxy-phenylamino)-pyrimidin-4-yl]-4-methyl-thiazol-2-yl}-3-(4-methyl-piperazin-1-yl)-propionamide], the IC50 in the assay on HT29 is 0.73 µM; on CDK1/cyclin B, 61 µM; at CDK4/cyclin D1, 7.4 µM; on CDK2/cyclin A, 14 µM; in the assay with Saos-2 it was 4.3 µM; with A549, 4.4 µM. In addition, the IC50 on CDK2/cyclin E was found to be 64 µM; at CDK9/cyclin T1, 8.9 µM.

`COc1ccc(Nc2nccc(-c3sc(NC(=O)CCN4CCOCC4)nc3C)n2)cc1` [Compound 38, N-{5-[2-(4-Methoxy-phenylamino)-pyrimidin-4-yl]-4-methyl-thiazol-2-yl}-3-morpholin-4-yl-propionamide]: the IC50 came out at 1.7 µM in the assay with HT29; 1.9 µM on CDK1/cyclin B; 1.8 µM at CDK4/cyclin D1; 0.58 µM on CDK2/cyclin A; 5.3 µM with Saos-2; 2.7 µM in the assay on A549. Moreover, the IC50 came out at 2.7 µM on CDK2/cyclin E and 1.1 µM at CDK9/cyclin T1.
